# Test results published in patent publication US10597388B2, “Pyridazinone herbicides” (FMC CORPORATION, priority 2014, dated 2020).
# Legend:
# Test in all cases: Test C greenhouse herbicide test, pre- and postemergence
# Format in all cases: in vivo
# [1] = system: barnyardgrass (Echinochloa crus-galli)
# Procedure, shortened: (§1)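 Percent-control ratings (0 none, 100 complete) came from visual comparison with controls held alongside in the greenhouse for 13–15 d. Treatments covered soil application at sowing and foliar application to young plants 2–18 cm tall.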
# [2] = system: blackgrass (Alopecurus myosuroides)
# Procedure, shortened: as §1
# [3] = system: crabgrass, large (large crabgrass, Digitaria sanguinalis)
# Procedure, shortened: as §1
# [4] = system: foxtail, giant (giant foxtail, Setaria faberii)
# Procedure, shortened: as §1
# [5] = system: galium (catchweed bedstraw, Galium aparine)
# Procedure, shortened: as §1
# [6] = system: johnsongrass (Sorghum halepense)
# Procedure, shortened: as §1
# [7] = system: lambsquarters (Chenopodium album)
# Procedure, shortened: as §1
# [8] = system: morningglory (Ipomoea coccinea)
# Procedure, shortened: as §1
# [9] = system: nutsedge, yellow (yellow nutsedge, Cyperus esculentus)
# Procedure, shortened: as §1
# [10] = system: oilseed rape (Brassica napus)
# Procedure, shortened: as §1
# [11] = system: pigweed (Amaranthus retroflexus)
# Procedure, shortened: as §1
# [12] = system: ragweed (common ragweed, Ambrosia elatior)
# Procedure, shortened: as §1
# soybean (Glycine max) = system: soybean (Glycine max)
# Procedure, shortened: as §1
# [13] = system: velvetleaf (Abutilon theophrasti)
# Procedure, shortened: as §1
# [14] = system: waterhemp (common waterhemp, Amaranthus rudis)
# Procedure, shortened: as §1
# [15] = system: wheat (winter wheat, Triticum aestivum)
# Procedure, shortened: as §1
# [16] = Postemergence, 31 g ai/ha, 0 to 100 scale (0 no effect, 100 complete control)
# [17] = Postemergence, 125 g ai/ha, scale 0 to 100, 0 is no effect, 100 is complete control
# [18] = Postemergence, 250 g ai/ha, scale 0 to 100, 0 no effect, 100 complete control, 13 to 15 d
# [19] = Preemergence, 31 g ai/ha, scale 0 to 100, 0 is no effect, 100 is complete control
# [20] = Preemergence, 62 g ai/ha, scale 0 to 100, 0 is no effect, 100 is complete control
# [21] = Preemergence, 125 g ai/ha, scale 0 to 100, 0 is no effect, 100 is complete control
# [22] = Preemergence, 250 g ai/ha, scale 0 to 100 (0 no effect, 100 complete control)
# [23] = postemergence, 62 g ai/ha, scale 0 to 100, 0 no effect, 100 complete control
compound,measurement,setting,value
Cc1ccc2ccccc2c1-c1c(O)c(C)nn(C)c1=O [Compound 59],Barnyardgrass plant response rating,[1]; [16],20
same,"Plant response rating, Barnyardgrass",[1]; [17],55
same,"Plant response rating, Barnyardgrass",[1]; [18],70
same,"Plant response rating, Barnyardgrass",[1]; [19],30
same,"Plant response rating, Barnyardgrass",[1]; [20],70
same,"Plant response rating, Barnyardgrass",[1]; [21],90
same,Barnyardgrass plant response rating,[1]; [22],95
same,Barnyardgrass plant response rating,[1]; [23],30
same,Blackgrass plant response rating,[2]; [16],65
same,"Plant response rating, Blackgrass",[2]; [17],85
same,"Plant response rating, Blackgrass",[2]; [18],90
same,"Plant response rating, Blackgrass",[2]; [19],85
same,"Plant response rating, Blackgrass",[2]; [20],90
same,"Plant response rating, Blackgrass",[2]; [21],90
same,Blackgrass plant response rating,[2]; [22],98
same,Blackgrass plant response rating,[2]; [23],80
same,"Crabgrass, Large plant response rating",[3]; [16],15
same,"Plant response rating, Crabgrass, Large",[3]; [17],25
same,"Plant response rating, Crabgrass, Large",[3]; [18],60
same,"Plant response rating, Crabgrass, Large",[3]; [19],25
same,"Plant response rating, Crabgrass, Large",[3]; [20],70
same,"Plant response rating, Crabgrass, Large",[3]; [21],85
same,"Crabgrass, Large plant response rating",[3]; [22],100
same,"Crabgrass, Large plant response rating",[3]; [23],20
same,"Foxtail, Giant plant response rating",[4]; [16],45
same,"Plant response rating, Foxtail, Giant",[4]; [17],85
same,"Plant response rating, Foxtail, Giant",[4]; [18],90
same,"Plant response rating, Foxtail, Giant",[4]; [19],80
same,"Plant response rating, Foxtail, Giant",[4]; [20],95
same,"Plant response rating, Foxtail, Giant",[4]; [21],98
same,"Foxtail, Giant plant response rating",[4]; [22],100
same,"Foxtail, Giant plant response rating",[4]; [23],60
same,Galium plant response rating,[5]; [16],95
same,"Plant response rating, Galium",[5]; [17],98
same,"Plant response rating, Galium",[5]; [18],98
same,"Plant response rating, Galium",[5]; [19],98
same,"Plant response rating, Galium",[5]; [20],95
same,"Plant response rating, Galium",[5]; [21],98
same,Galium plant response rating,[5]; [22],98
same,Galium plant response rating,[5]; [23],98
same,Johnsongrass plant response rating,[6]; [16],5
same,"Plant response rating, Johnsongrass",[6]; [17],25
same,"Plant response rating, Johnsongrass",[6]; [18],35
same,"Plant response rating, Johnsongrass",[6]; [19],5
same,"Plant response rating, Johnsongrass",[6]; [20],25
same,"Plant response rating, Johnsongrass",[6]; [21],45
same,Johnsongrass plant response rating,[6]; [22],65
same,Johnsongrass plant response rating,[6]; [23],5
same,Lambsquarters plant response rating,[7]; [16],90
same,"Plant response rating, Lambsquarters",[7]; [17],98
same,"Plant response rating, Lambsquarters",[7]; [18],98
same,"Plant response rating, Lambsquarters",[7]; [19],70
same,"Plant response rating, Lambsquarters",[7]; [20],90
same,"Plant response rating, Lambsquarters",[7]; [21],95
same,Lambsquarters plant response rating,[7]; [22],95
same,Lambsquarters plant response rating,[7]; [23],95
same,Morningglory plant response rating,[8]; [16],95
same,"Plant response rating, Morningglory",[8]; [17],100
same,"Plant response rating, Morningglory",[8]; [18],100
same,"Plant response rating, Morningglory",[8]; [19],98
same,"Plant response rating, Morningglory",[8]; [20],100
same,"Plant response rating, Morningglory",[8]; [21],100
same,Morningglory plant response rating,[8]; [22],100
same,Morningglory plant response rating,[8]; [23],100
same,"Nutsedge, Yellow plant response rating",[9]; [16],65
same,"Plant response rating, Nutsedge, Yellow",[9]; [17],95
same,"Plant response rating, Nutsedge, Yellow",[9]; [18],95
same,"Plant response rating, Nutsedge, Yellow",[9]; [19],80
same,"Plant response rating, Nutsedge, Yellow",[9]; [20],80
same,"Plant response rating, Nutsedge, Yellow",[9]; [21],85
same,"Nutsedge, Yellow plant response rating",[9]; [22],90
same,"Nutsedge, Yellow plant response rating",[9]; [23],85
same,Oilseed Rape plant response rating,[10]; [16],5
same,"Plant response rating, Oilseed Rape",[10]; [17],40
same,"Plant response rating, Oilseed Rape",[10]; [18],55
same,"Plant response rating, Oilseed Rape",[10]; [19],65
same,"Plant response rating, Oilseed Rape",[10]; [20],80
same,"Plant response rating, Oilseed Rape",[10]; [21],95
same,Oilseed Rape plant response rating,[10]; [22],95
same,Oilseed Rape plant response rating,[10]; [23],50
same,Pigweed plant response rating,[11]; [16],90
same,"Plant response rating, Pigweed",[11]; [17],95
same,"Plant response rating, Pigweed",[11]; [18],98
same,"Plant response rating, Pigweed",[11]; [19],100
same,"Plant response rating, Pigweed",[11]; [20],100
same,"Plant response rating, Pigweed",[11]; [21],100
same,Pigweed plant response rating,[11]; [22],100
same,Pigweed plant response rating,[11]; [23],95
same,Ragweed plant response rating,[12]; [16],90
same,"Plant response rating, Ragweed",[12]; [17],95
same,"Plant response rating, Ragweed",[12]; [18],98
same,"Plant response rating, Ragweed",[12]; [19],90
same,"Plant response rating, Ragweed",[12]; [20],95
same,"Plant response rating, Ragweed",[12]; [21],100
same,Ragweed plant response rating,[12]; [22],100
same,Ragweed plant response rating,[12]; [23],95
same,Soybean plant response rating,soybean (Glycine max); [16],0
same,"Plant response rating, Soybean",soybean (Glycine max); [17],10
same,"Plant response rating, Soybean",soybean (Glycine max); [18],25
same,"Plant response rating, Soybean",soybean (Glycine max); [19],0
same,"Plant response rating, Soybean",soybean (Glycine max); [20],0
same,"Plant response rating, Soybean",soybean (Glycine max); [21],15
same,Soybean plant response rating,soybean (Glycine max); [22],25
same,Soybean plant response rating,soybean (Glycine max); [23],15
same,Velvetleaf plant response rating,[13]; [16],80
same,"Plant response rating, Velvetleaf",[13]; [17],90
same,"Plant response rating, Velvetleaf",[13]; [18],95
same,"Plant response rating, Velvetleaf",[13]; [19],85
same,"Plant response rating, Velvetleaf",[13]; [20],90
same,"Plant response rating, Velvetleaf",[13]; [21],98
same,Velvetleaf plant response rating,[13]; [22],100
same,Velvetleaf plant response rating,[13]; [23],85
same,Waterhemp plant response rating,[14]; [16],85
same,"Plant response rating, Waterhemp",[14]; [17],98
same,"Plant response rating, Waterhemp",[14]; [18],100
same,"Plant response rating, Waterhemp",[14]; [19],95
same,"Plant response rating, Waterhemp",[14]; [20],100
same,"Plant response rating, Waterhemp",[14]; [21],100
same,Waterhemp plant response rating,[14]; [22],100
same,Waterhemp plant response rating,[14]; [23],90
same,Wheat plant response rating,[15]; [16],0
same,"Plant response rating, Wheat",[15]; [17],10
same,"Plant response rating, Wheat",[15]; [18],15
same,"Plant response rating, Wheat",[15]; [19],60
same,"Plant response rating, Wheat",[15]; [20],60
same,"Plant response rating, Wheat",[15]; [21],75
same,Wheat plant response rating,[15]; [22],85
same,Wheat plant response rating,[15]; [23],20
